Data: PubChem BioAssay (NCI)
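These data come from cells grown in 96-well plates and exposed to compound for 48 hours at five concentrations. Here, GI50 denotes the concentration required for 50% inhibition of growth. TGI is the concentration that stops growth completely.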

System: MDA-MB-468 breast
Assay: NCI-60 cell line screen, 48 h

Row | Compound | GI50 [µM] | TGI [µM]
1 | O=C1Nc2cc(Cl)ccc2/C1=C\c1c(-c2ccc(F)cc2)nc2ccccn12 | 0.448 | 2.25
2 | O=C(N/N=C\c1ccc(Cl)cc1)c1ccc2nc(-c3ccc(Br)cc3)[nH]c2c1 | 2.02 | 3.86
3 | O=C(/C=C/c1ccc(Cl)cc1)/C=C/c1cc2ccccc2[nH]c1=O | 2.35 | 6.01
4 | CCOC(=O)N1C/C(=C/c2ccc(F)cc2)C(=O)/C(=C/c2ccc(F)cc2)C1 | 1.26 | 2.9
5 | O=C1c2ccccc2-c2nnc(-c3ccc(Br)cc3)cc21 | > 100 | > 100
6 | CN1CCc2c(c3ccccc3c3ccccc23)C1 | 2.22 | 9.94
7 | Fc1cnc(NC2CC2)nc1-c1cnc2ccc(N3CCOCC3)cn12 | 0.182 | 0.429
8 | Nc1nc2c(c3ncccc13)C(c1cccc(Br)c1)Cc1ncccc1-2 (stereo unspecified) | 0.349 | 7.66
9 | O=C(N/N=C/c1ccccc1O)c1ccccc1O | 0.427 | 5.56
10 | COc1ccc(C(=O)c2cc(OC)c3c(c2)OCO3)cc1O | 0.366 | 3.35
11 | O=C(Nc1cccc(Cl)c1)Nc1nc2ccc([N+](=O)[O-])cc2s1 | 1.04 | 3.25
12 | COc1ccc2[nH]c(-c3ccccc3)c(/C=C(\C#N)S(=O)(=O)c3ccccc3)c2c1 | 4.17 | > 100
13 | CC(=O)Nc1cccc(Nc2nc(N[C@@H](C)c3ccccc3)c3ccccc3n2)c1 | 0.229 | 0.818
14 | COc1cc2ncn(-c3cc(O[C@H](C)c4ccccc4Cl)c(C(N)=O)s3)c2cc1OC | 0.00789 | 4
15 | O=C(Nc1cccc(-n2cc(-c3ccncc3)c(-c3ccc(Cl)c(O)c3)n2)c1)Nc1ccc(Cl)c(C(F)(F)F)c1 | 0.547 | 2.23
16 | COc1cc(NCCCCCN=C(N)N)c2ncccc2c1 | 0.078 | 0.344
17 | O=C(Nc1ccc(CN2CCOCC2)cc1)c1ccc(-c2cc(Cl)ccc2Cl)o1 | 4.52 | 25.8
18 | CCn1cc(C(=O)O)c(=O)c2cc(F)c(N3CCN(S(=O)(=O)c4ccc(Cl)cc4)CC3)cc21 | 2.1 | 6.24
19 | CCOc1nc(-c2ccccc2)cc2c(O)c(C(=O)N/N=C/c3ccc(O)cc3O)[nH]c(=O)c12 | 2.49 | 56.7
20 | C[C@@H]1C[N+]2([O-])[C@H]3C4=CCC[C@@H]4CC[C@H]3[C@@]3(C)OC(=O)CC[C@]34CC[C@H]1[C@@H]42 (stereo partly specified) | > 60 | > 60
21 | CCc1ccc(CNCC(O)c2ccccc2)cc1 (stereo unspecified) | 13.2 | 28.2
22 | CCCS(=O)(=O)Nc1ccc(F)c(C(=O)c2c[nH]c3ncc(Cl)cc23)c1F | 7.64 | 49.5
23 | CCN1CCN(c2cc(C)nc(N(CCNc3ccnc4cc(Cl)ccc34)Cc3ccc4c(c3)OCO4)n2)CC1 | 0.534 | 2.14
24 | O=c1c2ccc3cccc4c(=O)c5ccc6cccc1c6c5-c2c34 | > 50 | > 50
25 | O=c1c2cc(F)ccc2sc2c(N3CCNCC3)nc3ccccc3c12 | 1.58 | 3.19
26 | CN(C)CCCOc1ccc(OCCCN(C)C)c2c1C(=O)c1ccccc1C2=O | 0.58 | 2.95
27 | O=C1C=CC(=O)N1C1CCCCCCCCCCC1 | 2.21 | 6.8
28 | CN1CCN(CCCOc2ccc3nc(Nc4cc(Cl)cc(Cl)c4)ccc3c2)CC1 | 1.6 | 3.25
